Where two headings read alike, the source gives them in different places.
Legend:
[1] = test system: CHIKV-nLuc; assay: microbe, parasite or virus in culture; format: cell-based; details: Chikungunya virus, MRC5, 6 h, read-out: EC50 (CHIKV-nLuc replication)
[2] = target: HEK293 cell lysate proteins and CHIKV nsP2 (Homo sapiens, UniProt Q92616); format: binding
[3] = target: HEK293 cell lysate proteins and CHIKV nsP2 (Homo sapiens, UniProt Q9HCY8); format: binding
[4] = target: HEK293 cell lysate proteins and CHIKV nsP2 (Homo sapiens, UniProt P60709); format: binding
[5] = target: HEK293 cell lysate proteins and CHIKV nsP2 (Homo sapiens, UniProt Q9UQ35); format: binding
[6] = target: HEK293 cell lysate proteins and CHIKV nsP2 (Homo sapiens, UniProt Q00610); format: binding
[7] = target: HEK293 cell lysate proteins and CHIKV nsP2 (Homo sapiens, UniProt P32119); format: binding
[8] = target: HEK293 cell lysate proteins and CHIKV nsP2 (Homo sapiens, UniProt P31025); format: binding
[9] = target: HEK293 cell lysate proteins and CHIKV nsP2 (Homo sapiens, UniProt Q96P63); format: binding
[10] = target: HEK293 cell lysate proteins and CHIKV nsP2 (Homo sapiens, UniProt P31944); format: binding
[11] = target: HEK293 cell lysate proteins and CHIKV nsP2 (Homo sapiens, UniProt Q08188); format: binding
[12] = target: HEK293 cell lysate proteins and CHIKV nsP2 (Homo sapiens, UniProt Q15424); format: binding
[13] = target: HEK293 cell lysate proteins and CHIKV nsP2 (Homo sapiens, UniProt O15042); format: binding
[14] = target: HEK293 cell lysate proteins and CHIKV nsP2 (Homo sapiens, UniProt P10599); format: binding
HEK293 cell lysate proteins and CHIKV nsP2 (Homo sapiens, UniProt P10599), sequence (P10599 whole entry): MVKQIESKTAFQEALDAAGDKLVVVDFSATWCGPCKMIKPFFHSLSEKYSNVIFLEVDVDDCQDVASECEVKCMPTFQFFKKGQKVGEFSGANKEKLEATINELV

[15] = target: HEK293 cell lysate proteins and CHIKV nsP2 (Homo sapiens, UniProt Q8NFC6); format: binding
[16] = target: HEK293 cell lysate proteins and CHIKV nsP2 (Homo sapiens, UniProt Q86UP2); format: binding
HEK293 cell lysate proteins and CHIKV nsP2 (Homo sapiens, UniProt Q86UP2), sequence (Q86UP2 whole entry): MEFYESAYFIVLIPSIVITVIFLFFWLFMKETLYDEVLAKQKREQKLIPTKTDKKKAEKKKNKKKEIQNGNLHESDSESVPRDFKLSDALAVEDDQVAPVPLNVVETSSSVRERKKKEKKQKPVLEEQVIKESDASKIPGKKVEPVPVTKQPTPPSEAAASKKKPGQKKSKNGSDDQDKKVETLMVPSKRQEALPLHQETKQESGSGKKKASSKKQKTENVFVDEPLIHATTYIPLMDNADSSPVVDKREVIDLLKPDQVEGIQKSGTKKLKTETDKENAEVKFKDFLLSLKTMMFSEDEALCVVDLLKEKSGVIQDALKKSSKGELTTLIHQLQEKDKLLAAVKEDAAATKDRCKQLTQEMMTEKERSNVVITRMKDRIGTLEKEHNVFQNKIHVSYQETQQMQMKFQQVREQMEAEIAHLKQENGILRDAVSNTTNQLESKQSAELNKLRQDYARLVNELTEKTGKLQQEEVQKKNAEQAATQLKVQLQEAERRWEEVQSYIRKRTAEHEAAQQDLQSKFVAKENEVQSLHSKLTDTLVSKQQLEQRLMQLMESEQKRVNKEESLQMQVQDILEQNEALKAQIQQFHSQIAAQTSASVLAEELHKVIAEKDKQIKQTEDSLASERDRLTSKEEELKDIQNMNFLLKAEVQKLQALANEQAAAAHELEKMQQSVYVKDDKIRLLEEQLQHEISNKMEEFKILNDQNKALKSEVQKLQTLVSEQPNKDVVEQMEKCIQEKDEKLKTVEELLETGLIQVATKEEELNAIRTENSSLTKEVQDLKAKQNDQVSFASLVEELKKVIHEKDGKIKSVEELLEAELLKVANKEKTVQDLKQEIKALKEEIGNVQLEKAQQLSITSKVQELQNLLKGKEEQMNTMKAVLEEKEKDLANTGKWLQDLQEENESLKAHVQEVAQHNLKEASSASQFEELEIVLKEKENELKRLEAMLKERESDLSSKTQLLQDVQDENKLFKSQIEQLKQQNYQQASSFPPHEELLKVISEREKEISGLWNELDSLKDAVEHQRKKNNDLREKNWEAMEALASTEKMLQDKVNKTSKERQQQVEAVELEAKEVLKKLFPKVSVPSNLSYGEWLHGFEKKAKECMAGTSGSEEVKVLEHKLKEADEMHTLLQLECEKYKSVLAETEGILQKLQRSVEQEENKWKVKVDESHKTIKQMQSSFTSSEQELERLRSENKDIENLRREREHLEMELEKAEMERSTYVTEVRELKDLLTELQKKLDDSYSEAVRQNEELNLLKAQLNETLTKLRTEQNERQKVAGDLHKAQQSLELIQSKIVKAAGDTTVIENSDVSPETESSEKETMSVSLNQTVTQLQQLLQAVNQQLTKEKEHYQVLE

[17] = target: HEK293 cell lysate proteins and CHIKV nsP2 (Homo sapiens, UniProt O60524); format: binding
[18] = target: HEK293 cell lysate proteins and CHIKV nsP2 (Homo sapiens, UniProt P05089); format: binding
HEK293 cell lysate proteins and CHIKV nsP2 (Homo sapiens, UniProt P05089), sequence (P05089 whole entry): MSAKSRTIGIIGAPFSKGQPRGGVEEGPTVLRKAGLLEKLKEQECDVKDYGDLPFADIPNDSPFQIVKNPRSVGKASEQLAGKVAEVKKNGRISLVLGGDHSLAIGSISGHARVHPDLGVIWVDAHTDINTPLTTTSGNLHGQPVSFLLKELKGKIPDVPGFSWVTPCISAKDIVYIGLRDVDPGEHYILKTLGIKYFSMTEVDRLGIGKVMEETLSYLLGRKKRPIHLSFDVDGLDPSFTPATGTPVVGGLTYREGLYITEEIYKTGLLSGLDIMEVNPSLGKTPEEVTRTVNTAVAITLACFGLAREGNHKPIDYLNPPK

[19] = target: HEK293 cell lysate proteins and CHIKV nsP2 (Homo sapiens, UniProt Q7L014); format: binding
[20] = target: HEK293 cell lysate proteins and CHIKV nsP2 (Homo sapiens, UniProt Q5T749); format: binding
HEK293 cell lysate proteins and CHIKV nsP2 (Homo sapiens, UniProt Q5T749), sequence (Q5T749 whole entry): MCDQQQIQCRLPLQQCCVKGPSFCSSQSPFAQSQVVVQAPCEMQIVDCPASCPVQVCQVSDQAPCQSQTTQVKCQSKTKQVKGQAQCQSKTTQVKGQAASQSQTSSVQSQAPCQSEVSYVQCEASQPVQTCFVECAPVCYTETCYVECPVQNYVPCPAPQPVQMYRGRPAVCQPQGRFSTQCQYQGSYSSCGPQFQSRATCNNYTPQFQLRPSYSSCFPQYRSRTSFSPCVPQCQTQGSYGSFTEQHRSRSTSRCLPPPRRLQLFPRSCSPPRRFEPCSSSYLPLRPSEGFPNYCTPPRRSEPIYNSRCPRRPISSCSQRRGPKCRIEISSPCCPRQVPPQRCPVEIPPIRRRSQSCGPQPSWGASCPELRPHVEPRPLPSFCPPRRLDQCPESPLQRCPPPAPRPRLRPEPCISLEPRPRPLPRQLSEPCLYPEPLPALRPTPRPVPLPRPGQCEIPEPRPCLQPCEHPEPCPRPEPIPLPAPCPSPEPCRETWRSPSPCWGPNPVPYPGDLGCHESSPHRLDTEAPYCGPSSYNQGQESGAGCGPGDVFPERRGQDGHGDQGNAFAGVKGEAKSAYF

[21] = target: HEK293 cell lysate proteins and CHIKV nsP2 (Homo sapiens, UniProt Q14562); format: binding
[22] = target: HEK293 cell lysate proteins and CHIKV nsP2 (Homo sapiens, UniProt P55786); format: binding
[23] = target: HEK293 cell lysate proteins and CHIKV nsP2 (Homo sapiens, UniProt Q9UKV3); format: binding
[24] = test system: HEK293 cell lysate proteins and CHIKV nsP2; format: binding; details: protein nsP2 (nsP2_AA993-AA1333_Tags)
[25] = target: HEK293 cell lysate proteins and CHIKV nsP2 (Homo sapiens, UniProt P13639); format: binding
[26] = target: HEK293 cell lysate proteins and CHIKV nsP2 (Homo sapiens, UniProt P01040); format: binding
[27] = target: HEK293 cell lysate proteins and CHIKV nsP2 (Homo sapiens, UniProt P27708); format: binding
[28] = target: HEK293 cell lysate proteins and CHIKV nsP2 (Homo sapiens, UniProt Q9NYF8); format: binding
[29] = target: HEK293 cell lysate proteins and CHIKV nsP2 (Homo sapiens, UniProt Q12872); format: binding
[30] = target: HEK293 cell lysate proteins and CHIKV nsP2 (Homo sapiens, UniProt Q5JTH9); format: binding
[31] = target: HEK293 cell lysate proteins and CHIKV nsP2 (Homo sapiens, UniProt Q9Y520); format: binding
[32] = target: HEK293 cell lysate proteins and CHIKV nsP2 (Homo sapiens, UniProt P05109); format: binding
[33] = target: HEK293 cell lysate proteins and CHIKV nsP2 (Homo sapiens, UniProt P11142); format: binding
[34] = target: HEK293 cell lysate proteins and CHIKV nsP2 (Homo sapiens, UniProt P12273); format: binding
[35] = target: HEK293 cell lysate proteins and CHIKV nsP2 (Homo sapiens, UniProt P11388); format: binding
[36] = target: CHIKV nsP2pro (Chikungunya virus, UniProt F2YI08); assay: biochemical

HEK293 cell lysate proteins and CHIKV nsP2 (Homo sapiens, UniProt Q92616), sequence (Q92616 whole entry): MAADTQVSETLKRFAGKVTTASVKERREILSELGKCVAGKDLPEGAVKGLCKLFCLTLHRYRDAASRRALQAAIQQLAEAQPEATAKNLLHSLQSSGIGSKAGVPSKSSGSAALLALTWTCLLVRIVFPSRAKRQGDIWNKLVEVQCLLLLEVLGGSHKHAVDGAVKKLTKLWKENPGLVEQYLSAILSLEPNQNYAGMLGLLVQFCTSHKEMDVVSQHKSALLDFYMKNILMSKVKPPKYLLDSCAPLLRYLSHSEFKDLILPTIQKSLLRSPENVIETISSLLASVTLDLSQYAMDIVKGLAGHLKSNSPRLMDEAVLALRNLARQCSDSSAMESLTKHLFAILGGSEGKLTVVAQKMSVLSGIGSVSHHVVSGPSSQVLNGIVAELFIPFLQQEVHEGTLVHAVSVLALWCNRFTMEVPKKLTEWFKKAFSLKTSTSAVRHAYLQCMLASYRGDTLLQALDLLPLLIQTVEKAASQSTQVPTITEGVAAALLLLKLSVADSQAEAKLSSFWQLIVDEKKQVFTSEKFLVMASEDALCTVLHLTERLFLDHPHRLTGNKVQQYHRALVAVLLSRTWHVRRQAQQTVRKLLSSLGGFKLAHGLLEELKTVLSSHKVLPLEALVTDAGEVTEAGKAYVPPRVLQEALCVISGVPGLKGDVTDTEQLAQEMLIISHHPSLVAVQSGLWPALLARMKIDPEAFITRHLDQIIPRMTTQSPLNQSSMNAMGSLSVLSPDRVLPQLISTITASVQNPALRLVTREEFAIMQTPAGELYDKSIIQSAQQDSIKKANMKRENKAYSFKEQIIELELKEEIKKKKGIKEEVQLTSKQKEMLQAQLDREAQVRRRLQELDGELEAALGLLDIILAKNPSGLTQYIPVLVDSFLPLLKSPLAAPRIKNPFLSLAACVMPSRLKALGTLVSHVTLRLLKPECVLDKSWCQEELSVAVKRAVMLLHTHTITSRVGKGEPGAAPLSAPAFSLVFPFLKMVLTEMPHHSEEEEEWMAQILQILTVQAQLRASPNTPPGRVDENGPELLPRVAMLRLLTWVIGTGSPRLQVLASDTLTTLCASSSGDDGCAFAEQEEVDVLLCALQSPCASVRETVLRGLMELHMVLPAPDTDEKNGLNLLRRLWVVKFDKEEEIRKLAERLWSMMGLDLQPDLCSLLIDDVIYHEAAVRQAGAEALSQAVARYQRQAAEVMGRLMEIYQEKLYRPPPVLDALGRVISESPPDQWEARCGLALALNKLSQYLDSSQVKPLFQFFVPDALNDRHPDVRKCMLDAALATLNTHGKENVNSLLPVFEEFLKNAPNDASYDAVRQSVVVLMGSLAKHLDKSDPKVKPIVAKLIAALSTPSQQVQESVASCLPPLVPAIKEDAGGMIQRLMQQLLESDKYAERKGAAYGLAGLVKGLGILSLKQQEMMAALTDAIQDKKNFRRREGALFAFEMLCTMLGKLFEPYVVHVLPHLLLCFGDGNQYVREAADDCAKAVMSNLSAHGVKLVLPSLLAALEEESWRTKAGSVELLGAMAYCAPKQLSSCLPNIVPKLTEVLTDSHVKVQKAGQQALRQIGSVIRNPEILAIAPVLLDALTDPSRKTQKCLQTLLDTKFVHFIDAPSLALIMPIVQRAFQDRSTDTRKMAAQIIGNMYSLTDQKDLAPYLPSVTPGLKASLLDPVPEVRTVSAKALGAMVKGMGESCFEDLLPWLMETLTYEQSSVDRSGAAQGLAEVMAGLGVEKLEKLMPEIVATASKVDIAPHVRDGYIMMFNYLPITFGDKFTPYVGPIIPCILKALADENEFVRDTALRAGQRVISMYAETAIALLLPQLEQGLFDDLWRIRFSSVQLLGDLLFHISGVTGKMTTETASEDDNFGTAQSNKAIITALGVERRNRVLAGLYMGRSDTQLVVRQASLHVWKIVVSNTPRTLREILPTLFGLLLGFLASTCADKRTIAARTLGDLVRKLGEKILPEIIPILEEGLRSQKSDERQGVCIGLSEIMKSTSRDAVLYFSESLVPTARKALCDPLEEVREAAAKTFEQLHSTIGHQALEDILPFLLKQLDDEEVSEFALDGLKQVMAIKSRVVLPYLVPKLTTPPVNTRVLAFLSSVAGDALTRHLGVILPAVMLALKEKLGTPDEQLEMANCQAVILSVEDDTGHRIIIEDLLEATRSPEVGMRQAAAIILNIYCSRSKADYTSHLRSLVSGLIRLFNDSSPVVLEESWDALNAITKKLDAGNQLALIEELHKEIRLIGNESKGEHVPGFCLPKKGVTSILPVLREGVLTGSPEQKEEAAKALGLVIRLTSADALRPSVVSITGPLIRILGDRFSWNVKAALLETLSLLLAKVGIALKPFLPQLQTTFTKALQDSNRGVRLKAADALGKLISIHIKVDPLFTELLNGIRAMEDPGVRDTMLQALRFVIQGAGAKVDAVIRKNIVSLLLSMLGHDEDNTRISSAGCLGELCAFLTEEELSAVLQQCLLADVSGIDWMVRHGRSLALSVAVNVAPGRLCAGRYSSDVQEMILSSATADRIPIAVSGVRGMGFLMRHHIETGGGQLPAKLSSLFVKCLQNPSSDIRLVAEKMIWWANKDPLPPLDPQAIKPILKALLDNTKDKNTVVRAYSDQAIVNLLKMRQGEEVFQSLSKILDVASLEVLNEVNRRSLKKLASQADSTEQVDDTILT

Q: For `C#CCOc1ccccc1-c1cc(C(=O)NC/C=C/S(C)(=O)=O)on1` [VS, (E)-N-(3-(methylsulfonyl)allyl)−3-(2-(prop-2-yn-1-yloxy)phenyl)isoxazole-5-carboxamide], which EC50 [1] is on record?
A: The EC50 was 33 nM.

Q: And the Log2 fold change [2]?
A: The Log2 fold change was -2.86.

Q: And the Log2 fold change [3]?
A: The Log2 fold change was -1.35.

Q: What about the Log2 fold change [4] of the same compound?
A: Its Log2 fold change is 1.54.

Q: And the Log2 fold change [5]?
A: The Log2 fold change was 0.25.

Q: What about the Log2 fold change [6] of the same compound?
A: The Log2 fold change was 3.09.

Q: And the Log2 fold change [7]?
A: The Log2 fold change was 2.04.

Q: What about the Log2 fold change [8] of the same compound?
A: The Log2 fold change was 1.54.

Q: What about the Log2 fold change [9] of the same compound?
A: The Log2 fold change was 1.71.

Q: What about the Log2 fold change [10] of the same compound?
A: Its Log2 fold change is 1.29.

Q: What about the Log2 fold change [11] of the same compound?
A: Its Log2 fold change is 1.61.

Q: What about the Log2 fold change [12] of the same compound?
A: Its Log2 fold change is 1.46.

Q: What about the Log2 fold change [13] of the same compound?
A: Its Log2 fold change is 0.06.

Q: And the Log2 fold change [14]?
A: The Log2 fold change was 1.84.

Q: And the Log2 fold change [15]?
A: Its Log2 fold change is 0.23.

Q: And the Log2 fold change [16]?
A: Its Log2 fold change is 0.34.

Q: And the Log2 fold change [17]?
A: Its Log2 fold change is -0.75.

Q: What about the Log2 fold change [18] of the same compound?
A: Its Log2 fold change is 1.79.

Q: And the Log2 fold change [19]?
A: The Log2 fold change was -0.13.

Q: And the Log2 fold change [20]?
A: The Log2 fold change was 2.53.

Q: What about the Log2 fold change [21] of the same compound?
A: The Log2 fold change was -0.65.

Q: And the Log2 fold change [22]?
A: The Log2 fold change was 2.43.

Q: What about the Log2 fold change [23] of the same compound?
A: The Log2 fold change was -1.88.

Q: What about the Log2 fold change [24] of the same compound?
A: The Log2 fold change was 1.03.

Q: And the Log2 fold change ([24]; sheet nsP2 spike)?
A: The Log2 fold change was 7.13.

Q: And the Log2 fold change [25]?
A: Its Log2 fold change is 1.35.

Q: What about the Log2 fold change [26] of the same compound?
A: Its Log2 fold change is 1.75.

Q: And the Log2 fold change [27]?
A: The Log2 fold change was 3.37.

Q: What about the Log2 fold change [28] of the same compound?
A: The Log2 fold change was -0.75.

Q: What about the Log2 fold change [29] of the same compound?
A: The Log2 fold change was -1.75.

Q: What about the Log2 fold change [30] of the same compound?
A: Its Log2 fold change is -0.0263.

Q: And the Log2 fold change [31]?
A: Its Log2 fold change is 0.50.

Q: What about the Log2 fold change [32] of the same compound?
A: Its Log2 fold change is 1.58.

Q: What about the Log2 fold change [33] of the same compound?
A: The Log2 fold change was 1.15.

Q: What about the Log2 fold change [34] of the same compound?
A: Its Log2 fold change is 1.00.

Q: And the Log2 fold change [35]?
A: Its Log2 fold change is -1.34.

Q: And the IC50 [36]?
A: The IC50 was 65 nM.
